Values after ≈ are worked out from the molar mass of the structure shown.
What was measured:
[1] = target: Bromodomain-containing protein 4 (Homo sapiens, UniProt O60885, Y390A); assay: Displacement of Alexa Fluor 647-labeled ligand from BRD4 BD1 Y390A mutant (1 to 477 residue) (unknown origin) measured after 30 mins by TR-FRET assay
[2] = target: T1, Chromatin remodeling regulator CECR2 (Homo sapiens, UniProt Q9BXF3); assay: Displacement of Alexa Fluor 647-labeled GSK tracer from FLAG-6His-Tev-fused CECR2 (424 to 543 residue) (unknown origin) measured after 15 mins by TR-FRET assay
[3] = target: T2, ATPase family AAA domain-containing protein 2 (Homo sapiens, UniProt Q6PL18); assay: Displacement of Alexa Fluor 488-labeled ligand from FLAG-6His-Tev-fused ATAD2 (981 to 1121 residue) (unknown origin) measured after 30 mins by TR-FRET assay
T2 sequence (Q6PL18 whole entry): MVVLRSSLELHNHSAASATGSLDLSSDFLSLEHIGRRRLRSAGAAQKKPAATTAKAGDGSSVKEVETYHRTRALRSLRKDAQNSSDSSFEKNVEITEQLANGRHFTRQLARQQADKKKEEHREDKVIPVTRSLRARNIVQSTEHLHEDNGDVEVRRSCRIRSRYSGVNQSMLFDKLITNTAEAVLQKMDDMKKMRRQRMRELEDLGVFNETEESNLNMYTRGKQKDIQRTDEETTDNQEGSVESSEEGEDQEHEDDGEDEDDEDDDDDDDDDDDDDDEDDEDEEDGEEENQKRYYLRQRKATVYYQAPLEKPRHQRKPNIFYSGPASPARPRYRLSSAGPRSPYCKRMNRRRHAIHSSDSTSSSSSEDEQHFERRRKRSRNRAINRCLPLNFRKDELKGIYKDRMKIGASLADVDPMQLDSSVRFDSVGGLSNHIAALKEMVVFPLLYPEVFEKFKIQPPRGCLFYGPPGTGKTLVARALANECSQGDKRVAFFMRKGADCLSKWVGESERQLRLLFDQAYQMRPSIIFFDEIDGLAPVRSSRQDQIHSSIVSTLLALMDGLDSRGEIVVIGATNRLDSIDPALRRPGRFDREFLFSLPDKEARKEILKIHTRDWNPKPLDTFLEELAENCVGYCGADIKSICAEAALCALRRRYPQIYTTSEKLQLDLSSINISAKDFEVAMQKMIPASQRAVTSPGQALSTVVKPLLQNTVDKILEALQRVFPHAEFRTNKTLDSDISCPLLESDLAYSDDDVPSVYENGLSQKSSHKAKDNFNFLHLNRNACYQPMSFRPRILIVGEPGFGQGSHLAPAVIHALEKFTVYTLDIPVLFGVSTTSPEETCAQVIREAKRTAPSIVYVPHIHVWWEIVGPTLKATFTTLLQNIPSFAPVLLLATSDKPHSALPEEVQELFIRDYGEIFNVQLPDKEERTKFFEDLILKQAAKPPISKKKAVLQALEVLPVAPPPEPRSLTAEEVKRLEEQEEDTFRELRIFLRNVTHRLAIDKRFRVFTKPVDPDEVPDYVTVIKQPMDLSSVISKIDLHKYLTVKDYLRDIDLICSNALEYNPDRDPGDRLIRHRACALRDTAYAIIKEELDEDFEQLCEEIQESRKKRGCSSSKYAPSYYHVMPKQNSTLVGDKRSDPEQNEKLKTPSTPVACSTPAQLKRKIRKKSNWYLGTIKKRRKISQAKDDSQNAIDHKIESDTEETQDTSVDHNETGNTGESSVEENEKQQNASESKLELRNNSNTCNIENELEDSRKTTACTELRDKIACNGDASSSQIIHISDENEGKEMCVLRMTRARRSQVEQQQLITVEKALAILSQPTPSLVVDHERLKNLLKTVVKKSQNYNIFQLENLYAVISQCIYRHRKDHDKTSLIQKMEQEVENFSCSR

[4] = Permeability of the compound by artificial lipid membrane-based method; assay type: ADME; details: not told; read-out: permeability
[5] = target: Bromodomain-containing protein 4 (Homo sapiens, UniProt O60885); assay: Displacement of Alexa Fluor 647-labeled ligand from BRD4 BD2 (unknown origin) measured after 30 mins by TR-FRET assay
[6] = target: T1, Chromatin remodeling regulator CECR2; assay: Binding affinity to human partial length CECR2 (P423 to D543 residues) expressed in bacterial expression system by BROMOscan assay
[7] = target: Histone acetyltransferase KAT2A (Homo sapiens, UniProt Q92830); assay: Binding affinity to human partial length GCN5L2 (E726 to K837 residues) expressed in bacterial expression system by BROMOscan assay
[8] = target: T1, Chromatin remodeling regulator CECR2; assay: Inhibition of BSP-BODIPY binding to Nanoluc-tagged CECR2 (unknown origin) expressed in HEK293 cells measured after 4 to 6 hrs by NanoBRET assay; assay type: cell-based
[9] = Lipophilicity, log D of the compound at pH 7.4 by chromatographic method; assay type: physicochemical; details: buffer
[10] = Solubility of the compound by CAD method; assay type: physicochemical
Homo sapiens = organism: Homo sapiens; assay: Selectivity ratio of IC50 for displacement of Alexa Fluor 488-labeled ligand from FLAG-6His-Tev-fused ATAD2 (981 to 1121 residue) (unknown origin) to IC50 for displacement of Alexa Fluor 647-labeled GSK tracer from FLAG-6His-Tev-fused CECR2 (424 to 543 residue) (unknown origin)
[11] = target: T1, Chromatin remodeling regulator CECR2; assay: Binding affinity to CECR2 (unknown origin) by ITC analysis

T1 sequence (Q9BXF3 whole entry, the tested form may be a part): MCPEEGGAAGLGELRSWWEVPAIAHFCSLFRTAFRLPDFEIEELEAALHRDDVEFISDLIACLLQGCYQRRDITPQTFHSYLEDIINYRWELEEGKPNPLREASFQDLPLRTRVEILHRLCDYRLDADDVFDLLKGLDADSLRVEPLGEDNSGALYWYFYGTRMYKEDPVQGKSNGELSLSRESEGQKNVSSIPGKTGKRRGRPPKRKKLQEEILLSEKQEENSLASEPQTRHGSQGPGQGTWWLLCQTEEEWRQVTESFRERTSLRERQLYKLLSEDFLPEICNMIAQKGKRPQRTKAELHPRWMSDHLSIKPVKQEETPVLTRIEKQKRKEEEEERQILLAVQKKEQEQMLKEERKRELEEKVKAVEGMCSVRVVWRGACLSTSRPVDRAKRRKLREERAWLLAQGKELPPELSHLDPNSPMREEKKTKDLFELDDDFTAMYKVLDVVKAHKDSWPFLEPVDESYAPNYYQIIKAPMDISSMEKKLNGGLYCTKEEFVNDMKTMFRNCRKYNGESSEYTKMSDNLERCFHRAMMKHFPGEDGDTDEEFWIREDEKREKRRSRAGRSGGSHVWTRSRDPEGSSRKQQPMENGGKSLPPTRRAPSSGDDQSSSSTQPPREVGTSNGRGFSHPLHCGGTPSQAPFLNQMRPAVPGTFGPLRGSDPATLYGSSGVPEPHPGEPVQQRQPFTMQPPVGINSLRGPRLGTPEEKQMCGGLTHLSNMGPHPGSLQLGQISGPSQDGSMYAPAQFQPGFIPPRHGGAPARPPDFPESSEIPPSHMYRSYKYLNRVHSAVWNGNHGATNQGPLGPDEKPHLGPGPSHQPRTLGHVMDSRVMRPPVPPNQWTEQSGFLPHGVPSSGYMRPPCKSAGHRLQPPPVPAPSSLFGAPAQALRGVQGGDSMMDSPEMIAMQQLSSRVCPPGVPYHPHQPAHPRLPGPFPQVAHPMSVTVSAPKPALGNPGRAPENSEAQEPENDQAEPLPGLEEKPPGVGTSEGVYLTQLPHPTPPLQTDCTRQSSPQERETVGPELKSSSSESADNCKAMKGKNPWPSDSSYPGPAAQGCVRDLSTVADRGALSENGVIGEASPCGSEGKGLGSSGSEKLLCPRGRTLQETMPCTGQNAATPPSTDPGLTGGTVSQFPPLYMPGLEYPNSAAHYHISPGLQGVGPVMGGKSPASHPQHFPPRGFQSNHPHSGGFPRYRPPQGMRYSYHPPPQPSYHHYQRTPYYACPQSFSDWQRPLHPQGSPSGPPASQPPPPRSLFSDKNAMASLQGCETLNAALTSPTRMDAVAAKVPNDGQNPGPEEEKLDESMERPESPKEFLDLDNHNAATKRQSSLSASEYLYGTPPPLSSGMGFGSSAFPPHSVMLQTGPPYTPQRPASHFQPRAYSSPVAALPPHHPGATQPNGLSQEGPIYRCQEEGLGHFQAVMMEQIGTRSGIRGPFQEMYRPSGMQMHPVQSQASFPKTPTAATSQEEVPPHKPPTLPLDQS
Chain of Histone acetyltransferase KAT2A (Q92830 whole entry, the tested form may be a part): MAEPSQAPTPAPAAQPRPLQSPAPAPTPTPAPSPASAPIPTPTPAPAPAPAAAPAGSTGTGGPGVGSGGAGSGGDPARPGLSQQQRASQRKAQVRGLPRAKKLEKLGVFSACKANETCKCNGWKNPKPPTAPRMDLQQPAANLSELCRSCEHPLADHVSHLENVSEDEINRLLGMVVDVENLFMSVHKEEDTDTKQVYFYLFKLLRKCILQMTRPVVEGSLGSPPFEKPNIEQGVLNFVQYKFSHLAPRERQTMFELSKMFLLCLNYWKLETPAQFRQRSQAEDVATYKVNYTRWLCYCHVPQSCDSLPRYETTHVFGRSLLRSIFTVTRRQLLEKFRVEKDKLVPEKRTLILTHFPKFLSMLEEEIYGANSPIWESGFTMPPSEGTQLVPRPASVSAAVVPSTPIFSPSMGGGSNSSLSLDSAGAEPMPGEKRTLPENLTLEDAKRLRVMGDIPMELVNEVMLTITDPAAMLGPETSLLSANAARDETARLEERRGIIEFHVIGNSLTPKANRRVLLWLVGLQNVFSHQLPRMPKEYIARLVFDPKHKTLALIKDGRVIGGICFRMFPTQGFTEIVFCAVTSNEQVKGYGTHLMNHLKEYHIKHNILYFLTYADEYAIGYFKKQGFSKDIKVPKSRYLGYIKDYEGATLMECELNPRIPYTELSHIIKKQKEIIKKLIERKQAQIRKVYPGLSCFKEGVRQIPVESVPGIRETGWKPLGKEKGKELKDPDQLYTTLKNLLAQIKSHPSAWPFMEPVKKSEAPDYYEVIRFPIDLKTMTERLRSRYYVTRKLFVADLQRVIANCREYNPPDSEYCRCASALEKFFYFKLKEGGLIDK

IC50 [1] | IC50 [2] | IC50 [3] | Papp [4] | IC50 [5] | Kd [6] | Kd [7] | IC50 [8] | chromatographic logD [9] | solubility [10] | Ratio IC50 (Homo sapiens) | Kd [11] | Structure (SMILES)
25.1 µM | 0.02 µM | 3.16 µM | 11.1 ×10⁻⁶ cm/s | 10 µM | 0.00794 µM | 0.501 µM | 0.0501 µM |  |  |  |  | CN1CCc2c(nnn2CC(=O)Nc2ccc(Cl)c(S(=O)(=O)N3CC[C@H](C4CC4)C3)c2)C1
31.6 µM | 0.158 µM | 2.51 µM |  |  |  |  |  | 5.3 | 49 µg/mL (≈ 86.7 µM) | 16 |  | C[C@H]1CCN(S(=O)(=O)c2cc(NC(=O)Cn3nnc4c3CCN(CC(F)(F)F)C4)ccc2Br)C1
 |  |  |  |  |  |  |  |  |  |  | 0.01 µM | CN(C)CCCOc1ccc(-c2cc(NCCCn3cccn3)nc(S(C)(=O)=O)n2)cc1
> 50.1 µM | 3.98 µM | 1.26 µM | 4.2 ×10⁻⁶ cm/s |  |  |  |  |  |  |  |  | O=C(CN1C(=O)CCC1=O)Nc1ccc(Cl)c(S(=O)(=O)N2CCCC2)c1
12.6 µM |  | 2 µM | 14 ×10⁻⁶ cm/s | 5.01 µM | 0.01 µM | 0.158 µM | 0.0398 µM |  |  |  |  | CN1CCc2c(nnn2CC(=O)Nc2ccc(Br)c(S(=O)(=O)N3CC[C@H](C4CC4)C3)c2)C1
